Results published in ChEMBL document CHEMBL5727779, “Compounds for inhibiting AGC kinase and pharmaceutical compositions comprising the same” (2020).

Columns and labels:
[1] = target: Rho-associated protein kinase 1 (Homo sapiens, UniProt Q13464); experiment: (§1) ELISA Assay: ROCK Substrate Coated Plate (Part No 241601): One strip well 96-well plate pre-coated with recombinant MYPT1.Buffer: 25 mM Tris, pH 7.5, 10 mM MgCl2, 5 mM Glycerol-2-Phosphate, 0.1 mM Na3VO4; 1% DMSO; 2.5 mM DTT; (Enzyme: ROCK active-II) (Cell Biolabs, Catalog #STA-406, Part No. 241505) 0.1 ng/μl.ATP Solution (Part No. 241604): 100 mM ATP. Final concentration of ATP in reaction mixture: 250 μM.Anti-phospho-MYPT1 (Thr696) (Part No. 241603).Secondary Antibody, HRP Conjugate (Part No. 231003).Biotinylated substrate, diluted to 0.25 μM with buffer described above (without ATP).Steps:1. Purified kinase or cell lysate sample can be used directly in the kinase assay or further diluted with 1× Kinase Buffer. Each sample should be assayed in duplicate.2. Add 90 μL of the diluted active ROCK-II positive control or unknown ROCK samples to the wells of the substrate plate.3. Initiate the kinase reaction by adding 10 μL of the 10× Kinase Reaction Buffer containing DTT and ATP. Mix well.4. Cover with a plate cover and incubate the wells at 30° C. for 30-60 minutes with gentle agitation.5. Stop kinase reaction by flicking out the content or by adding 50 μL of 0.5M EDTA, pH 8.0, to each well.6. Remove the plate cover and empty wells. Wash microwell strips 3 times with 250 μL 1× Wash Buffer per well with thorough aspiration between each wash. After the last wash, empty wells and tap microwell strips on absorbent pad or paper towel to remove excess 1× Wash Buffer.7. Add 100 μL of the diluted anti-phospho-MYPT1 (Thr696) antibody to each well.8. Cover with the plate cover and incubate at room temperature for 1 hour on an orbital shaker.9. Remove the plate cover and empty wells. Wash the strip wells 3 times according to step 6 above.10. Add 100 μL of the diluted HRP-conjugated secondary antibody to each well.11. Cover with the plate cover and incubate at room temperature for 1 hour on an orbital shaker.12. Remove the plate cover and empty wells. Wash microwell strips 3 times according to step 6 above. Proceed immediately to the next step.13. Warm Substrate Solution to room temperature. Add 100 μL of Substrate Solution to each well, including the blank wells. Incubate at room temperature for 5-20 minutes on an orbital shaker.14. Stop the enzyme reaction by adding 100 μL of Stop Solution into each well, including the blank wells. Results should be read immediately (color will fade over time).15. Read absorbance of each microwell on a spectrophotometer using 450 nm as the primary wave length.
[2] = target: Rho-associated protein kinase 2 (Homo sapiens, UniProt O75116); experiment: as §1
Sequence of Rho-associated protein kinase 2 (O75116 whole entry): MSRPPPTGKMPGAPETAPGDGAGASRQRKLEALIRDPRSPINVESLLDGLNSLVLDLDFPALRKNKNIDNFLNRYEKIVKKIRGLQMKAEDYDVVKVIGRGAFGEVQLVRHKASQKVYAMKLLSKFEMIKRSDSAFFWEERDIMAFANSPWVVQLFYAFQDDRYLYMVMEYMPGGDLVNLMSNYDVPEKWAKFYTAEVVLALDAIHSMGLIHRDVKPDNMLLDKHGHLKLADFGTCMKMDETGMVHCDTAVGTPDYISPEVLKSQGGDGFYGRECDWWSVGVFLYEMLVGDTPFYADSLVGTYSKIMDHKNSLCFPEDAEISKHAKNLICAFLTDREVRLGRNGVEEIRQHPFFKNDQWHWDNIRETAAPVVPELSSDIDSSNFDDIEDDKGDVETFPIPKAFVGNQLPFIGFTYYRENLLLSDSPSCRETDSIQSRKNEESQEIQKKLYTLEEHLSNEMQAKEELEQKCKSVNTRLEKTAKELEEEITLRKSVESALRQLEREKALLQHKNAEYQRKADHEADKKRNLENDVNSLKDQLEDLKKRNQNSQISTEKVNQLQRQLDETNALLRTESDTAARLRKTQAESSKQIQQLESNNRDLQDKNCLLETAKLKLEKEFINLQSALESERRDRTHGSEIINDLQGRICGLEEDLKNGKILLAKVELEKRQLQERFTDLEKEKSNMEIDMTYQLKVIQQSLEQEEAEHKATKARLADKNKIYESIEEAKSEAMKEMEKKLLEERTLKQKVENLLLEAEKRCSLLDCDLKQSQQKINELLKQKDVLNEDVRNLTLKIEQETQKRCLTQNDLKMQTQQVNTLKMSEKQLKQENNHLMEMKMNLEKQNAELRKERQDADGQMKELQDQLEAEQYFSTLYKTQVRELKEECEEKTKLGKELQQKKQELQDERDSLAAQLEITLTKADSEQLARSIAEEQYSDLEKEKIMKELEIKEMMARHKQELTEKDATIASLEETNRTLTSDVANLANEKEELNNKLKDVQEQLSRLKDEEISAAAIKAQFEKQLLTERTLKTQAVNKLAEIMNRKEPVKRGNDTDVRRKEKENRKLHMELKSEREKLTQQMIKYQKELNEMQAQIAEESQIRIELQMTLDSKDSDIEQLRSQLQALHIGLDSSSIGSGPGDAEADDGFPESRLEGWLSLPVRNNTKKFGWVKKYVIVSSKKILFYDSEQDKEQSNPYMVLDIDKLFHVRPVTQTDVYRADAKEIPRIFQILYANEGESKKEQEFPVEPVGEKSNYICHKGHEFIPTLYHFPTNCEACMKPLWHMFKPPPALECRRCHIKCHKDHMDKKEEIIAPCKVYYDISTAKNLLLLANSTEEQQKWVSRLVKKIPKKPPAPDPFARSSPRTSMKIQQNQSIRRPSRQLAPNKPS

Sequence of Rho-associated protein kinase 1 (Q13464 whole entry): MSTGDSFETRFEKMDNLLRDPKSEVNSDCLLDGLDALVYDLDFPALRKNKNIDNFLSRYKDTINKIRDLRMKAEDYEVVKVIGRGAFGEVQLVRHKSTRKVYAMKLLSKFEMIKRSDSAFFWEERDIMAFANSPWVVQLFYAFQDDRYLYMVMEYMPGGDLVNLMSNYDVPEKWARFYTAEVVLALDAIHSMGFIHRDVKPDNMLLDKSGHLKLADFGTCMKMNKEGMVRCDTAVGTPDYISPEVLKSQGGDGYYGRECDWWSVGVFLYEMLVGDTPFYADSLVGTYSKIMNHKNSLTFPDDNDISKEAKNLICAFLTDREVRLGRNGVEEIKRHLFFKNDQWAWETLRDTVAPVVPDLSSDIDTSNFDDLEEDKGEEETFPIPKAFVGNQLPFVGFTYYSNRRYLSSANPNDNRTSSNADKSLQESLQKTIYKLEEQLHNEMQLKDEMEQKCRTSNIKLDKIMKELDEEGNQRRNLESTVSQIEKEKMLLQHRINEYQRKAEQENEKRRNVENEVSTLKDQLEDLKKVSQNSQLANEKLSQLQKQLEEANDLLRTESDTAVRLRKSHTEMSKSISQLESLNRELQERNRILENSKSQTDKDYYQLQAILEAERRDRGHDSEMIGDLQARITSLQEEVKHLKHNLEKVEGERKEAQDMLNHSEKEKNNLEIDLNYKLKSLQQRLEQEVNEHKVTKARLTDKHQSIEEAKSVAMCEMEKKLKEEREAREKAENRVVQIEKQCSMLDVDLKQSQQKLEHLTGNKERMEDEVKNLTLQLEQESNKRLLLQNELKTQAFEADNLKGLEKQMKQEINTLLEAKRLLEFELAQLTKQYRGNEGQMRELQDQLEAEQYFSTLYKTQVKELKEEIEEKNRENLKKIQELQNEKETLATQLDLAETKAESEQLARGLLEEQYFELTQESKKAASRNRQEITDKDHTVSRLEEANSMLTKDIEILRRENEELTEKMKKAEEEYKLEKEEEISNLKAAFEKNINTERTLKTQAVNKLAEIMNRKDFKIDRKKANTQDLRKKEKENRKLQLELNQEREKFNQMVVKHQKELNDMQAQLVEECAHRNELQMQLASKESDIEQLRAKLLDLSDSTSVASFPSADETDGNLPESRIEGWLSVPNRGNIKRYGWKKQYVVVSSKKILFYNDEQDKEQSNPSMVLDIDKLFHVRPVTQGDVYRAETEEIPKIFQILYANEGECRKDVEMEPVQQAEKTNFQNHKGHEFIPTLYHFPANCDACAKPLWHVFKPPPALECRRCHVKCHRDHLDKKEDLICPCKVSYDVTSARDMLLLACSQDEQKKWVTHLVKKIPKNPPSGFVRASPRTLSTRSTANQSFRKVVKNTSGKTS

## NCCN(Cc1ccc(F)cc1)C(=O)Nc1cccc2cnccc12
[1]
  IC50: > 1000 nM

## COC(=O)c1ccc(CN(CCO)C(=O)Nc2ccc3cnccc3c2)cc1
[2]
  IC50: > 1000 nM

## CN(C)CCN(Cc1ccc(Oc2ccc(C#N)cc2)cc1)C(=O)Nc1ccc2cnccc2c1
[2]
  IC50: > 1000 nM

## CN(C)CCN(Cc1ccccc1)C(=O)Nc1ccc2cnccc2c1
[2]
  IC50: > 1000 nM
